Test results from ChEMBL document CHEMBL1137475, “Design, synthesis, and docking studies of new 1,3,4-thiadiazole-2-thione derivatives with carbonic anhydrase inhibitory activity” (Bioorg Med Chem, 2007).

Key:
[1] = biological target: Carbonic anhydrase 1 (Homo sapiens, UniProt P00915)
[2] = biological target: Carbonic anhydrase 9 (Homo sapiens, UniProt Q16790)
[3] = biological target: Carbonic anhydrase 2 (Homo sapiens, UniProt P00918)

Sequence of Carbonic anhydrase 1 (P00915 whole entry): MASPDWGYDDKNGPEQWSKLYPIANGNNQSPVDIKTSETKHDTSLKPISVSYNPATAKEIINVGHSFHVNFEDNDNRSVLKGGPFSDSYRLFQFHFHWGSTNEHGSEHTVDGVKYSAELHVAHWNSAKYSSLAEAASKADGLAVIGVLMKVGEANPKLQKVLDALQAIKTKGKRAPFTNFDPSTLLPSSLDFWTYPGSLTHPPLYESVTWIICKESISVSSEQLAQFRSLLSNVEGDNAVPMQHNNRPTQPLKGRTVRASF

Row | Compound | Ki [1] | Ki [2] | Ki [3]
1 | O=C(NN=C1C(=O)Nc2ccc([N+](=O)[O-])cc21)Nc1nnc(S)s1 |  | 1.25 µM | 
2 | COc1ccc(/C(C)=N/NC(=O)Nc2n[nH]c(=S)s2)cc1 |  | 20 µM | 346 µM
3 | O=C(N/N=C/c1ccc(F)cc1)Nc1n[nH]c(=S)s1 |  | 7.53 µM | 
4 | COc1cc(/C=N/NC(=O)Nc2n[nH]c(=S)s2)ccc1O |  | 26 µM | 386 µM
5 | O=C(NN=C1C(=O)Nc2ccc(Br)cc21)Nc1nnc(S)s1 |  | 7.18 µM | 
6 | COc1cccc(/C=N/NC(=O)Nc2n[nH]c(=S)s2)c1 |  | 7.13 µM | 
7 | O=C(N/N=C/c1ccc(Cl)cc1)Nc1n[nH]c(=S)s1 |  | 118 µM | 
8 | O=C(N/N=C/c1ccccc1[N+](=O)[O-])Nc1n[nH]c(=S)s1 | 223 µM | 24 µM | 433 µM
9 | C/C(=N\NC(=O)Nc1n[nH]c(=S)s1)c1ccc([N+](=O)[O-])cc1 |  | 7.54 µM | 
10 | C/C(=N\NC(=O)Nc1n[nH]c(=S)s1)c1ccc(Cl)cc1 | 144 µM | 8.55 µM | 
11 | O=C(N/N=C/c1ccccc1Cl)Nc1n[nH]c(=S)s1 |  | 29 µM | 412 µM
12 | NNC(=O)Nc1n[nH]c(=S)s1 |  | 9.3 µM | 
13 | O=C(NN=C(c1ccccc1)c1ccccc1)Nc1n[nH]c(=S)s1 |  | 8.43 µM | 

Now from value to molecule:

Row | Ki [1] | Ki [2] | Ki [3] | Compound
14 | 125 µM | 3.35 µM |  | CN(C)c1ccccc1/C=N/NC(=O)Nc1n[nH]c(=S)s1
15 |  | 21 µM | 350 µM | C/C(=N\NC(=O)Nc1n[nH]c(=S)s1)c1ccc(O)cc1
16 |  | 149 µM |  | C/C(=N\NC(=O)Nc1n[nH]c(=S)s1)c1ccc(C)cc1
17 |  | 23 µM | 354 µM | O=C(N/N=C/c1ccccc1)Nc1n[nH]c(=S)s1
18 |  | 9.4 µM |  | O=C(N/N=C1\C(=O)Nc2ccccc21)Nc1n[nH]c(=S)s1
19 |  | 10.1 µM | 236 µM | O=C(N/N=C/c1cccc(Br)c1)Nc1n[nH]c(=S)s1
20 |  | 22 µM | 360 µM | O=C(N/N=C/c1ccc(Br)cc1)Nc1n[nH]c(=S)s1
21 |  | 6.85 µM |  | C/C(=N\NC(=O)Nc1n[nH]c(=S)s1)c1ccc(Br)cc1
22 |  | 5.75 µM |  | O=C(N/N=C/c1ccco1)Nc1n[nH]c(=S)s1
23 |  | 7.44 µM |  | C/C(=N\NC(=O)Nc1n[nH]c(=S)s1)c1ccccc1
24 |  | 24 µM | 350 µM | COc1ccc(/C=N/NC(=O)Nc2n[nH]c(=S)s2)cc1
25 |  | 10 µM |  | O=C(N/N=C/c1ccc([N+](=O)[O-])cc1)Nc1n[nH]c(=S)s1
26 |  | 5.05 µM |  | O=C(N/N=C/c1cccnc1)Nc1n[nH]c(=S)s1
